The source of these data is EP0373645A1, “Imidazolyl and pyridyl derivatives of phenyl substituted 1,4 -dihyropyridines and process for their preparation” (priority 1988, dated 1990).

For series [1], the target named is T1, TxA₂ Synthase (Rattus norvegicus, UniProt P49430).
T1 construct: Blood was withdrawn from the abdominal aorta of the animals; from tissue; host or cells: whole blood of reduced renal mass (RRM) rats, allowed to clot 1 h at 37°C
T1 sequence (P49430 1-533): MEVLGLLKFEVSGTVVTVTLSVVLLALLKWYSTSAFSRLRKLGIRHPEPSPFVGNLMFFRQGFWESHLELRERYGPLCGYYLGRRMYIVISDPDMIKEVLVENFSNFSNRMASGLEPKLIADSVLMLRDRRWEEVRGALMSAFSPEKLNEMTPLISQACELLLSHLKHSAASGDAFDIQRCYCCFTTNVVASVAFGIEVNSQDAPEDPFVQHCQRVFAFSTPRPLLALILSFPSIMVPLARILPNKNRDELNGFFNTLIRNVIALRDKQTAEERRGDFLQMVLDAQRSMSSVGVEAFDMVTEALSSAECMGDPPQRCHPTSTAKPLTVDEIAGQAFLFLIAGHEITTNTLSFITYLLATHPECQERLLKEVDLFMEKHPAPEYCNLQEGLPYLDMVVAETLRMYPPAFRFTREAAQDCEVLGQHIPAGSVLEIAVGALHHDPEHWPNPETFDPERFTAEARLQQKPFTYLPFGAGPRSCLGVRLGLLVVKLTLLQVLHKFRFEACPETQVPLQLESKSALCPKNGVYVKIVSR
Nature of the series: In vitro effect on TxB₂ synthesis in whole blood during clotting (RIA). The format is cell-based. Conditions: for times more potent than the reference compound ASA (TxA₂ synthesis in whole blood): ratio to ASA; for times more potent than the reference compound Dazoxiben (TxA₂ synthesis in whole blood): ratio to Dazoxiben. The method, then: (§1) Their ability to inhibit TxA₂ Synthase activity (as reflected by TxB₂ generated in whole blood during clotting or in isolated glomeruli) was tested in vitro and ex vivo in the rat.
(§2) The effect of the compounds on TxA₂ synthesis was evaluated in serum and in glomeruli isolated from kidney cortex of reduced renal mass rats (RRM). Ablation of >70% of renal mass in the rat results in hypertension, proteinuria and glomerular sclerosis of the remnant kidney. Rats with a remnant kidney have increased excretion of thromboxane in the urine when compared with normal rats [Purkerson et al.-Proc.Natl.Acad.Sci.USA 82, 193, 1985].
Blood was withdrawn from the abdominal aorta of the animals under light ether anesthesia.
Samples were then allowed to clot for 1 h at 37°C, centrifuged at 3000 rpm for 10 min, serum collected and stored at -20°C until assayed. TxB₂ levels were determined by RIA according to previously described procedures [Patrono et al.-Thromb.Res. 17, 3/4, 317, 1980] using highly specific antibody.

Series [2] deals with T1, TxA₂ Synthase. In words: In vitro effect on TxB₂ synthesis in isolated glomeruli (RIA). The format is cell-based. On the procedure:
as §1, §2
The isolation of glomeruli was performed as previously described [Patrignani et al., - J. Pharm. Exp. Ther. 228, 2, 472, 1984]
The isolated glomeruli of 4 rats were pooled, suspended in modified Krebs buffer (pH 7.3) and divided into portions of 1 ml each containing a concentration of the test compounds or of the reference compounds.
The TxA₂ synthesis was induced by incubating the glomeruli under shaking at 37°C for 1 h. At that time the incubation was stopped by centrifugation at +4°C, the supernatant collected and stored at -20°C until assayed by RIA.

For series [3], the system named is chronically cannulated hypertensive rats (SHR). In words: Antihypertensive activity, intra-arterial blood pressure and heart rate. The format is in vivo. On the procedure:
The antihypertensive activity of the compounds of the invention was tested in chronically cannulated hypertensive rats (SHR).
For intra-arterial measurements of blood pressure (MBP) catheters (PE50 Clay Adams) were implanted in the right carotid artery under alothane anesthesia. Two days after surgery the animals were placed in a Ballman cage and the arterial catheter was connected to a stathman P23 Db pressure transducer and a Beckman multichannel R611 BP recorder for continuous monitoring of MBP and heart rate (HR).
Measurements were made predrug and 0.5, 1, 2, 4, 6 h after drug or vehicle (methocel 0.5% w/v).

Series [4] concerns the target T1, TxA₂ Synthase. In words: Ex vivo inhibition of TxA₂ synthesis in serum after oral administration. Conditions: 1 h, p.o., blood taken one hour after treatment, read-out: ED₅₀ inhibition of the synthesis of TxA₂ (ex vivo). The method, then: as §1
The ex vivo experiments were performed as follows.
The compounds were orally administered to RRM rats by gavage at the dose of 2.5 mg/kg in 0.5% methocel. One hour after treatment rats were anaesthetised with ether, blood was withdrawn from the abdominal aorta and allowed to clot for 1 h at 37°C. Samples were then centrifuged, serum collected and stored at -20°C until assayed.

Series [5] is described as follows: Orientative acute oral toxicity. Conditions: in vivo; single oral administration, assessed on the seventh day after treatment; read-out: orientative acute toxicity (LD₅₀). Also on record: species or system Mice and rats. On the procedure:
The toxicity of the compounds of the invention is negligible, so that they can be safely used in therapy. Mice and rats which had been deprived of food for nine hours were treated orally with single administrations of increasing doses of compounds of the invention, then housed and normally fed. For example the orientative acute toxicity (LD₅₀) of the compound FCE 24265, assessed on the seventh day after treatment, was higher than 800 mg/kg.

[6] abbreviates: RRM rats whole blood, clotting 1 h at 37°C, read-out: In vitro effect on TxB₂ synthesis in RRM rats whole blood, IC₅₀.

pIC50: −log10 of the molar value.

Take `CC(=O)Oc1ccccc1C(=O)O` [ASA, Acetylsalicylic acid, reference compound]: the pIC50 on TxA₂ Synthase [1] was 4.38; at TxA₂ Synthase [2], 3.85.
In the case of `CCOC(=O)C1=C(C)NC(C)=C(C(=O)OCC)C1c1cccc(-n2ccnc2)c1` [FCE 24265, 1,4-dihydro-2,6-dimethyl-4-[3-(1H-imidazol-1-yl)phenyl]-3,5-pyridinedicarboxylic acid, diethyl ester], the pIC50 at TxA₂ Synthase [1] (setting [6]) is 6.77. Besides, at TxA₂ Synthase [1], the “times more potent than the reference compound ASA (TxA₂ synthesis in whole blood)” value is reported as 247 times and the “times more potent than the reference compound Dazoxiben (TxA₂ synthesis in whole blood)” value was determined as 7 times. For the same compound, in series [3], the “changes in heart rate” value is “No changes”. For the same compound, the “time until blood pressure returned toward normal levels” value in series [3] (after treatment) stood at 3 h. In addition, the “peak effect on blood pressure (MBP)” value in series [3] (peak reached at 30 minutes postdrug) is -30 ± 4 mm Hg. At TxA₂ Synthase [4], the ED50 worked out at 2.3 mg/kg. Moreover, the LD50 at 168 h in series [5] is above 800 mg/kg. For the same compound, the pIC50 on TxA₂ Synthase [2] (RRM rats isolated glomeruli, incubation 1 h at 37°C, read-out: In vitro effect on TxB₂ synthesis in RRM rats glomeruli, IC₅₀) was 7.44. For the same compound, the “times more potent than ASA on glomerular TxB₂ synthesis” value at TxA₂ Synthase [2] (glomeruli, ratio to ASA) is on record as ~4,000 times. At TxA₂ Synthase [2] (glomeruli, ratio to Dazoxiben), the “times more potent than Dazoxiben on glomerular TxB₂ synthesis” value worked out at 4.7 times.
`CCOC(=O)C1=C(C)NC(C)=C(C(=O)OCC)C1c1cccc(-c2cccnc2)c1` [FCE 26055, 1,4-dihydro-2,6-dimethyl-4-[3-(3-pyridyl)phenyl]-3,5-pyridinedicarboxylic acid, diethyl ester]: on TxA₂ Synthase [1] (setting [6]), the pIC50 was 6.35. Further, on TxA₂ Synthase [1], the “times more potent than the reference compound ASA (TxA₂ synthesis in whole blood)” value was determined as 90 times and the “times more potent than the reference compound Dazoxiben (TxA₂ synthesis in whole blood)” value is listed as 3 times.
